Among the data in US7468375B2 (Pfizer Inc., priority 2004, dated 2008) are IC50 and EC50 values, retold here.

Where two headings read alike, the source gives them in different places.

For assay [1], the target named is T1, Full-length wild type HIV-1 integrase (SF1) (Human immunodeficiency virus type 1 group M subtype B, UniProt P04585).
T1 construct: made in house; host or cells: E. coli BL21 (DE3)
In words: Integrase strand-transfer scintillation proximity assay. The following applies: strand transfer, 50 min at 37° C., 246 nM integrase, 50 nM host DNA; read-out: IC50. In kind it is biochemical. A digest of the protocol: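 Recombinant full-length wild-type HIV-1 integrase (aa 1-288), E. coli-expressed, tested on biotinylated pre-processed U5 LTR viral ds-DNA with CA overhang bound to streptavidin SPA beads. [3H]-thymidine-labelled host ds-DNA serves as target; strand transfer read by scintillation proximity. A 3′ di-deoxy viral DNA control checks non-specific binding.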

Assay [2] concerns RF strain of HIV-1 in CEM-SS cells. Description: HIV-1 cell protection assay (XTT dye reduction). Type of assay: cell-based. The procedure, abridged: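 CEM-SS cells infected with HIV-1 RF (moi 0.025–0.819) or mock-infected, 2×10^4 cells/well with half-log compound dilutions for six days. Viability by XTT/PMS reduction (4 h), absorbance 450 nm, as % of uninfected untreated cells. Therapeutic index = CC50/EC50.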
A general note: Tetrazolium dyes change colour on reduction, which living cells bring about.

[3] abbreviates: Human immunodeficiency virus 1, CEM-SS, 144 h, HIV-1 RF, CEM-SS cells, XTT dye reduction, six days, read-out: EC50.

The term IC50 denotes the concentration needed to halve the response being measured. What is called EC50 is the midpoint of the concentration-response curve.

Take `CN(O)C(=O)c1cc2c(CN3CC[C@H]4CNC(=O)[C@H]4C3)cn(Cc3ccc(F)cc3F)c2cn1` [Example 113]: in assay [1], the half-inhibitory concentration (IC50) was found to be 0.04 µM. For the same compound, the EC50 in assay [2] (setting [3]) amounted to 0.437 µM.
In the same order, the values of `CN(O)C(=O)c1cc2c(CN3CC[C@@H]4CNC(=O)[C@@H]4C3)cn(Cc3ccc(F)cc3F)c2cn1` (relative stereo) [Example 112] are 0.062 µM and 0.597 µM.
As for `O=C(NO)c1cc2c(CN3CC[C@@H]4C(=O)NC[C@@H]4C3)cn(Cc3ccc(F)cc3F)c2cn1` (racemic) [Example 16, rac 1-(2,4-difluorobenzyl)-N-hydroxy-3-{[(3aR*,7aS*)-1-oxooctahydro-5H-pyrrolo[3,4-c]pyridin-5-yl]methyl}-1H-pyrrolo[2,3-c]pyridine-5-carboxamide], in assay [1], the half-inhibitory concentration (IC50) amounted to 0.108 µM. In addition, the EC50 in assay [2] (setting [3]) is 0.012 µM.
In the same order, the values of `Cc1nnc(CCNCc2cn(Cc3ccc(F)cc3F)c3cnc(C(=O)NO)cc23)[nH]1` [Example 100, 1-(2,4-Difluorobenzyl)-N-hydroxy-3-({[2-(5-methyl-4H-1,2,4-triazol-3-yl)ethyl]amino}methyl)-1H-pyrrolo[2,3-c]pyridine-5-carboxamide] are 0.27 µM and 10 µM.
The matching figures for `CCN(CCO)Cc1cn(Cc2ccc(F)cc2F)c2cnc(C(=O)NO)cc12` [Example 69, 1-(2,4-Difluorobenzyl)-3-{[ethyl(2-hydroxyethyl)amino]methyl}-N-hydroxy-1H-pyrrolo[2,3-c]pyridine-5-carboxamide]: 0.755 µM and 0.028 µM.
The matching figures for `O=C(NO)c1cc2c(CNCCc3ccccn3)cn(Cc3ccc(F)cc3F)c2cn1` [Example 56]: 0.278 µM and 0.011 µM.
Regarding `CC(C)(C)[C@@H](CO)NCc1cn(Cc2ccc(F)cc2F)c2cnc(C(=O)NO)cc12` [Example 87, 1-(2,4-Difluorobenzyl)-N-hydroxy-3-({[(1S)-1-(hydroxymethyl)-2,2-dimethylpropyl]amino}methyl)-1H-pyrrolo[2,3-c]pyridine-5-carboxamide], the IC50 in assay [1] stood at 0.814 µM. In addition, the concentration giving a half-maximal response (EC50) in assay [2] (setting [3]) stood at 0.067 µM.
As to `CN(O)C(=O)c1cc2c(COC3CCOCC3)cn(Cc3ccc(F)cc3)c2cn1` [Example 118, 1-(4-Fluorobenzyl)-N-hydroxy-N-methyl-3-[(tetrahydro-2H-pyran-4-yloxy)methyl]-1H-pyrrolo[2,3-c]pyridine-5-carboxamide], the IC50 in assay [1] turned out to be 0.057 µM. In assay [2] (setting [3]), the EC50 was found to be 0.313 µM.
Regarding `O=C(NO)c1cc2c(CNCCc3c[nH]c4ccccc34)cn(Cc3ccc(F)cc3F)c2cn1` [Example 67, 1-(2,4-Difluorobenzyl)-N-hydroxy-3-({[2-(1H-indol-3-yl)ethyl]amino}methyl)-1H-pyrrolo[2,3-c]pyridine-5-carboxamide], the IC50 in assay [1] was found to be 0.283 µM. The EC50 in assay [2] (setting [3]) amounted to 0.015 µM.
Turning to `O=C1CN(Cc2cn(Cc3ccc(F)cc3)c3cnc(C(=O)NOc4ccccc4)cc23)CCN1` [Example 104, 1-(4-Fluorobenzyl)-3-[(3-oxopiperazin-1-yl)methyl]-N-phenoxy-1H-pyrrolo[2,3-c]pyridine-5-carboxamide], in assay [1], the IC50 was 0.182 µM. In assay [2] (setting [3]), the EC50 came to 0.00445 µM.
The matching figures for `O=C(NO)c1cc2c(CNCCOCCO)cn(Cc3ccc(F)cc3F)c2cn1` [Example 58, 1-(2,4-Difluorobenzyl)-N-hydroxy-3-({[2-(2-hydroxyethoxy)ethyl]amino}methyl)-1H-pyrrolo[2,3-c]pyridine-5-carboxamide]: 0.585 µM and 0.1 µM.
In the case of `COCCOCc1cn(Cc2ccc(F)cc2F)c2cnc(C(=O)N(C)O)cc12` [Example 123, 1 (2,4-Difluorobenzyl)-N-hydroxy-3-[(2-methoxyethoxy)methyl]-N-methyl-1H-pyrrolo[2,3-c]pyridine-5-carboxamide], the half-maximal inhibitory concentration (IC50) in assay [1] was 0.051 µM. Moreover, it took 0.519 µM to reach a half-maximal effect in assay [2] (Human immunodeficiency virus 1, CEM-SS, 144 h) (EC50).
Turning to `CONC(=O)c1ncc2c(ccn2Cc2ccc(F)cc2)c1O` [Example 43, 1-(4-Fluorobenzyl)-4-hydroxy-N-methoxy-1H-pyrrolo[2,3-c]pyridine-5-carboxamide], the IC50 in assay [1] was 0.371 µM. For the same compound, the EC50 in assay [2] (setting [3]) is 0.42 µM.
Regarding `CCN1CCCC1CNCc1cn(Cc2ccc(F)cc2F)c2cnc(C(=O)NO)cc12` (centres unmarked) [Example 62, 1-(2,4-Difluorobenzyl)-3-({[(1-ethylpyrrolidin-2-yl)methyl]amino}methyl)-N-hydroxy-1H-pyrrolo[2,3-c]pyridine-5-carboxamide], the half-maximal inhibitory concentration (IC50) in assay [1] was found to be 0.671 µM. In assay [2] (HIV-1 RF, CEM-SS cells, XTT dye reduction, six days, read-out: EC50), the 50% effective concentration (EC50) was determined as 0.017 µM.
Turning to `O=C(NO)c1cc2c(CNCCc3ccc(F)cc3)cn(Cc3ccc(F)cc3F)c2cn1` [Example 85, 1-(2,4-Difluorobenzyl)-3-(J[2-(4-fluorophenyl)ethyl]aminomethyl)-N-hydroxy-1H-pyrrolo[2,3-c]pyridine-5-carboxamide], in assay [1], the IC50 amounted to 0.224 µM. Also, in assay [2] (setting [3]), the EC50 came out at 0.033 µM.
The matching figures for `O=C(NO)c1cc2c(CN[C@@H]3C[C@H]4CC[C@@H]3C4)cn(Cc3ccc(F)cc3F)c2cn1` [Example 74, 3-{[(1R,2R,4S)-Bicyclo[2.2.1]hept-2-ylamino]methyl}-1-(2,4-difluorobenzyl)-N-hydroxy-1H-pyrrolo[2,3-c]pyridine-5-carboxamide]: 0.357 µM and 0.032 µM.
As to `CN(C)CCNCc1cn(Cc2ccc(F)cc2F)c2cnc(C(=O)NO)cc12` [Example 72, 1-(2,4-Difluorobenzyl)-3-({[2-(dimethylamino)ethyl]amino}methyl)-N-hydroxy-1H-pyrrolo[2,3-c]pyridine-5-carboxamide], in assay [1], the IC50 amounted to 0.658 µM. In addition, the EC50 in assay [2] (setting [3]) is 0.029 µM.
For `CN1CCC(NCc2cn(Cc3ccc(F)cc3F)c3cnc(C(=O)NO)cc23)CC1` [Example 89, 1-(2,4-Difluorobenzyl)-N-hydroxy-3-{[(1-methylpiperidin-4-yl)amino]methyl}-1H-pyrrolo[2,3-c]pyridine-5-carboxamide], the IC50 in assay [1] came out at 0.708 µM. For the same compound, the EC50 in assay [2] (setting [3]) came out at 0.052 µM.
The matching figures for `CN1CCN(Cc2cn(Cc3ccc(F)cc3F)c3cnc(C(=O)NO)cc23)CC1` [Example 5, 1-(2,4-Difluorobenzyl)-N-hydroxy-3-[(4-methylpiperazin-1-yl)methyl]-1H pyrrolo[2,3-c]pyridine-5-carboxamide]: 0.153 µM and 0.013 µM.
For `O=C(NO)c1cc2c(CNCc3n[nH]c4c3CCC4)cn(Cc3ccc(F)cc3F)c2cn1` [Example 99, 1-(2,4-Difluorobenzyl)-N-hydroxy-3-{[(1,4,5,6-tetrahydrocyclopenta[c]pyrazol-3-ylmethyl)amino]methyl}-1H-pyrrolo[2,3-c]pyridine-5-carboxamide], the half-maximal inhibitory concentration (IC50) in assay [1] worked out at 0.277 µM. Besides, the EC50 in assay [2] (setting [3]) was 0.031 µM.
On to `CONC(=O)c1cc2c(CN3CC[C@@H]4C(=O)NC[C@@H]4C3)cn(Cc3ccc(F)cc3F)c2cn1` (racemic) [Example 17, rac 1-(2,4-Difluorobenzyl)-N-methoxy-3-{[(3aR*,7aS*)-1-oxooctahydro-5H-pyrrolo[3,4-c]pyridin-5-yl]methyl}-1H-pyrrolo[2,3-c]pyridine-5-carboxamide], for which the IC50 in assay [1] turned out to be 0.3 µM. Besides, in assay [2] (setting [3]), the EC50 came out at 0.025 µM.
The matching figures for `O=C(NO)c1cc2c(CN[C@@H](CO)c3ccccc3)cn(Cc3ccc(F)cc3F)c2cn1` [Example 59, 1-(2,4-Difluorobenzyl)-N-hydroxy-3-({[(1R)-2-hydroxy-1-phenylethyl]amino}methyl)-1H-pyrrolo[2,3-c]pyridine-5-carboxamide]: 0.221 µM and 0.018 µM.
